Test results as given in US7868135B2, “Compositions of lipopeptide antibiotic derivatives and methods of use thereof” (priority 2003, dated 2011).
Read-outs that look alike come from different tables or passages of the source.

Columns and labels:
[1] = tested on: Staphylococcus aureus (MSSA)
Outline: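 Broth microdilution MIC per NCCLS M7-A6 with doubling serial dilutions, in cation-adjusted Mueller-Hinton broth supplemented with 0.625 mM calcium.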

[2] = In vivo half-life after single i.v. administration, mice; conditions: female, Swiss CD1, mouse, plasma, iv, 10 mg/kg
Description: Yet other exemplary in vivo models can be used to characterize the pharmacokinetics and pharmacodynamic parameters of antimicrobial compounds of this disclosure. Some parameters that can be measured include an in vivo half-life of a compound, elimination rate and clearance, volume of distribution, and bioavailability. For example, briefly, compounds can be administered as a single i.v. or oral (p.o.) dose in mice or rats. At various time points (ranging from 1 minute to 72 hours), blood from treated animals is collected and the concentration of lipopeptide derivative in the ex vivo plasma can be quantified by, for example, liquid chromatography with mass spectrometric detection (LC/MS). After quantification, pharmacokinetics parameters can be calculated using methods known in the art, such as a one compartment model with mono-exponential decay and linear regression analysis (see, e.g., Fantin et al., Antimicrob. Agents Chemotherap. 35: 1413. 1991).
A pharmacokinetic parameter that can be measured, and which aids in determining efficacy, after a single i.v. administration of an antimicrobial lipopeptide derivative of the instant disclosure is the systemic half-life of the compound. Briefly, test compounds were dissolved in a 5% mannitol solution (pH was then adjusted) to a concentration of 1 mg/mL (w/v). A single intravenous injection in the lateral caudal vein of Swiss CD1 mice (5 to 6 weeks old, female) or Sprague Dawley rats (male) was used to administer the lipopeptide derivative at a final dose of 10 mg/kg. At various time points (ranging from about 4 minutes to about 24 hours for mice, and 48 or 72 hours for rats) mice were sacrificed and blood was harvested. The concentration of lipopeptide derivative in ex vivo plasma was quantified using liquid chromatography (LC) with mass spectrometric detection (MS).

[3] = tested on: S. aureus Smith (SAU0017, ATCC 19636); test: Intraperitoneal murine model of protection against infection (ED50, Table 21); assay type: in vivo, Staphylococcus aureus; conditions: Swiss CD1 mice infected i.p., compound i.v.
Excerpt: A variety of in vivo models may be used to assess the antimicrobial properties of lipopeptide derivative compounds of this disclosure. For example, antimicrobial compounds of the instant disclosure may be tested for efficacy by measuring a compound's ability to protect a mouse against a microbial infection, such as an infection or disease caused by or related to Gram-positive bacteria, including Staphylococcus aureus, Streptococcus pneumoniae, and Enterococcus faecalis. […] A certain period after infection, mice are then individually treated, for example intravenously (i.v.), with a lipopeptide derivative of this disclosure.
Antimicrobial lipopeptide derivatives of the instant invention were tested for antimicrobial activity against Gram-positive bacteria in an intraperitoneal (i.p.) murine model (i.e., bacteria were injected i.p. and lipopeptide compounds were administered intravenously (i.v.)). Mice were infected with Staphylococcus aureus, Streptococcus pneumoniae, or Enterococcus faecalis, which were prepared as follows: S. aureus Smith (SAU0017, ATCC 19636) were grown in culture overnight on trypticase soy broth, harvested and then resuspended in fresh media containing 5% mucin (Sigma Chemical Co.); S. pneumoniae (SPN 0032, ATCC 10813) were grown overnight on blood agar plates and re-suspended in 0.9% sterile saline; and E. faecalis EFS0040 (clinical isolate) were grown overnight in culture on blood heart infusion broth, washed and resuspended in 0.9% saline and mixed with equal volume of sterile fecal rat extract. Swiss CD1 mice were each infected i.p. with bacteria at the following doses: S. aureus at 10^6 CFU/mouse; S. pneumoniae at 10^2 CFU/mouse; or E. faecalis at 10^7.5 CFU/mouse. […] The ED50 for each compound was calculated using the method of Reed and Meunch (Am. J. Hyg. 27: 493, 1938).

[4] = tested on: Streptococcus pneumoniae SPN0023 (PRSP); test: Broad spectrum MIC, Table 17/18 column K; assay type: cell-based; conditions: condition K of Table 17, in µg/mL
Description: (§1) The antimicrobial lipopeptide derivatives described herein were tested for antimicrobial activity against Gram-positive bacteria as follows. The minimum inhibitory concentrations (MIC) of the antimicrobial lipopeptide derivatives of the invention were determined using NCCLS guidelines M7-A6 (2003) with a slight modification in that doubling serial dilutions were used to dilute the test compounds. The broth phase microdilution method was used. Isolated colonies of Staphylococcus aureus (MSSA) from an 18-24 hour blood agar plate cultures were used to inoculate cation adjusted Mueller-Hinton broth (CAMHB) supplemented with 0.625 mM calcium. […] A negative control containing media alone and a positive growth control containing bacteria with media alone were also included. MICs were determined after incubating the plates at about 37° C. for 24 hours. […] In Tables 1 to 16, R is the core cyclic peptide of amphomycin or aspartocin, which can be in the form of a β-isomer, an anhydro, a dianhydro, or any combination thereof. […] Furthermore, a person of skill in the art will appreciate that all the pounds, or groups of compounds, derived from the various combinations of and substituents shown in Tables 1 to 16, are disclosed by the present the same extent as if each compound or group of compounds was set forth individually.
(§2) Antimicrobial lipopeptide derivatives of the instant invention were tested for antimicrobial activity against Gram-positive bacteria in a variety of media conditions. The […] (MIC) of the antimicrobial lipopeptide derivatives were determined as described in Example 376. The various media used are described in Table 17.

[5] = tested on: Staphylococcus aureus SAU0031 (VISA); test: Broad spectrum MIC, Table 17/18 column G; assay type: cell-based; conditions: condition G of Table 17, in µg/mL
Description: as §1, §2

[6] = tested on: Staphylococcus epidermidis SEP0375 (MRSE); test: Broad spectrum MIC, Table 17/18 column I; assay type: cell-based; conditions: condition I of Table 17, in µg/mL
Description: as §1, §2

[7] = tested on: Streptococcus pneumoniae SPN0002 (PISP); test: Broad spectrum MIC, Table 17/18 column J; assay type: cell-based; conditions: condition J of Table 17, in µg/mL
Description: as §1, §2

[8] = tested on: Streptococcus pneumoniae SPN0032 (PSSP); test: Broad spectrum MIC, Table 17/18 column L; assay type: cell-based; conditions: condition L of Table 17, in µg/mL
Description: as §1, §2

[9] = tested on: Enterococcus faecium EFM0101 (VRE, MDR); test: Broad spectrum MIC, Table 17/18 column A; assay type: cell-based; conditions: condition A of Table 17, in µg/mL
Description: as §1, §2

[10] = tested on: Streptococcus pyogenes SPY0001 (PenS); test: Broad spectrum MIC, Table 17/18 column M; assay type: cell-based; conditions: condition M of Table 17, in µg/mL
Description: as §1, §2

[11] = tested on: Staphylococcus aureus SAU0065 (MRSA); test: Broad spectrum MIC, Table 17/18 column H; assay type: cell-based; conditions: condition H of Table 17, in µg/mL
Description: as §1, §2

[12] = tested on: Staphylococcus aureus SAU0017 (MSSA); test: Broad spectrum MIC, Table 17/18 columns E, F (+ 0.625 mM calcium; + calcium and 30% bovine serum); assay type: cell-based; conditions: in µg/mL; for MIC, media condition E: condition E: + 0.625 mM calcium; for MIC, media condition F: condition F: + calcium and 30% bovine serum
Description: as §1, §2

[13] = tested on: Enterococcus faecalis EFS0004 (VSE); test: Broad spectrum MIC, Table 17/18 B, C, D (CAMHB; + 0.625 mM calcium; + calcium and 30% bovine serum); assay type: cell-based; conditions: in µg/mL; for MIC, media condition B: condition B: CAMHB; for MIC, media condition C: condition C: + 0.625 mM calcium; for MIC, media condition D: condition D: + calcium and 30% bovine serum
Description: as §1, §2

Row | SMILES | MIC ([1]; S. aureus (MSSA), CAMHB supplemented with 0.625 mM calcium, 24 hours at about 37° C., a range = compound tested multiple times) | half-life [2] | ED50 in Mice, S. aureus (SAU0017) [3] | MIC, media condition K [4] | MIC ([1]; 24 h) | MIC, media condition G [5] | MIC, media condition I [6] | MIC, media condition J [7] | MIC, media condition L [8] | MIC, media condition A [9] | MIC, media condition M [10] | MIC, media condition H [11] | MIC, media condition E [12] | MIC, media condition F [12] | MIC, media condition B [13] | MIC, media condition C [13] | MIC, media condition D [13]
1 | CCCCCCCCCCCCCC(=O)NC(CC(=O)O)C(=O)NC1C(=O)N2CCCCC2C(=O)NC(C(C)C(=O)O)C(=O)NC(CC(=O)O)C(=O)NCC(=O)NC(CC(=O)O)C(=O)NCC(=O)NC(C(C)NC(=O)CNC)C(=O)NC(C(C)C)C(=O)N2CCCC2C(=O)NC1C (stereo not drawn) [Compound 60, C14-Amphomycin-9-Sar] | 60/0.5 μg/mL | 4.13 h | 10 mg/kg | – | – | – | – | – | – | – | – | – | – | – | – | – | –
2 | CCCCCCCCCCCCCCNC(=O)NC(CC(=O)O)C(=O)NC1C(=O)N2CCCCC2C(=O)NC(C(C)C(=O)O)C(=O)NC(CC(=O)O)C(=O)NCC(=O)NC(CC(=O)O)C(=O)NCC(=O)NC(C(C)N)C(=O)NC(C(C)C)C(=O)N2CCCC2C(=O)NC1C (stereo not drawn) [Compound 253, CH3—(CH2)13—NH—C(═O)-Amphomycin] | – | 5.15 h | 4.8 mg/kg | 0.125 | 0.5 to 1 µg/mL | 2-4 | 1 | 0.125 | 0.125 | 0.5-1 | 0.25 | 1-2 | 0.5-1 | 2-4 | 1 | 0.5-1 | 16-32
3 | CCCCCCCCCCCCC(=O)NC(CC(=O)O)C(=O)NC1C(=O)N2CCCCC2C(=O)NC(C(C)C(=O)O)C(=O)NC(CC(=O)O)C(=O)NCC(=O)NC(CC(=O)O)C(=O)NCC(=O)NC(C(C)NC(=O)CNC(=O)[C@@H](N)CCCCN)C(=O)NC(C(C)C)C(=O)N2CCCC2C(=O)NC1C (stereo partly drawn) [Compound 128, C13-Amphomycin-9-Gly-Lys] | – | 0.198 h | 6.2 mg/kg | – | – | – | – | – | – | – | – | – | – | – | – | – | –
4 | CCCCCCCCCCCCNC(=O)NC(CC(=O)O)C(=O)NC1C(=O)N2CCCCC2C(=O)NC(C(C)C(=O)O)C(=O)NC(CC(=O)O)C(=O)NCC(=O)NC(CC(=O)O)C(=O)NCC(=O)NC(C(C)NC(=O)CNC)C(=O)NC(C(C)C)C(=O)N2CCCC2C(=O)NC1C (stereo not drawn) [Compound 98, CH3—(CH2)11—NH—C(═O)-Amphomycin-9-Sar] | – | – | – | 0.25 | 0.5 µg/mL | 4 | 1 | 0.125 | 0.5 | 2 | 0.5 | 1 | 0.5 | 16 | 32 | 4 | >64
5 | CCCCCCCCCCCCCCC(=O)NC(CC(=O)O)C(=O)NC1C(=O)N2CCCCC2C(=O)NC(C(C)C(=O)O)C(=O)NC(CC(=O)O)C(=O)NCC(=O)NC(CC(=O)O)C(=O)NCC(=O)NC(C(C)NC(=O)CNC(=O)[C@@H](C)N)C(=O)NC(C(C)C)C(=O)N2CCCC2C(=O)NC1C (stereo partly drawn) [Compound 69, C15-Amphomycin-9-Gly-(D-Ala)] | – | – | – | 1 | 1 µg/mL | 8 | 4 | 1 | 2 | 4 | 1 | 2 | 1 | 32 | 8 | 4 | >64
6 | CCCCCCCCCCCCCCC(=O)NC(CC(=O)O)C(=O)NC1C(=O)N2CCCCC2C(=O)NC(C(C)C(=O)O)C(=O)NC(CC(=O)O)C(=O)NCC(=O)NC(CC(=O)O)C(=O)NCC(=O)NC(C(C)NC(=O)[C@H]2CCCN2)C(=O)NC(C(C)C)C(=O)N2CCCC2C(=O)NC1C (stereo partly drawn) [Compound 67, C15-Amphomycin-9-(D-Pro)] | – | – | – | 0.5 | 1 to 2 µg/mL | 8 | 2 | 0.5 | 0.5 | 2 | 0.5-1 | 2 | 1-2 | 8-16 | 2-4 | 2 | 64
